Results on 28 compounds are retold here after patent publication US20250026752A1, “POSITIVE ALLOSTERIC MODULATORS OF THE MUSCARINIC ACETYLCHOLINE RECEPTOR M4” (Vanderbilt University, priority 2021, published 2025).

The assay concerns the target T1, human mAChR M4 (Homo sapiens, UniProt P08173).
T1 construct: expressed in transfected cells; host or cells: CHO-K1 (ATCC), stably expressing hM4 and Gqi5
T1 sequence (P08173 1-479): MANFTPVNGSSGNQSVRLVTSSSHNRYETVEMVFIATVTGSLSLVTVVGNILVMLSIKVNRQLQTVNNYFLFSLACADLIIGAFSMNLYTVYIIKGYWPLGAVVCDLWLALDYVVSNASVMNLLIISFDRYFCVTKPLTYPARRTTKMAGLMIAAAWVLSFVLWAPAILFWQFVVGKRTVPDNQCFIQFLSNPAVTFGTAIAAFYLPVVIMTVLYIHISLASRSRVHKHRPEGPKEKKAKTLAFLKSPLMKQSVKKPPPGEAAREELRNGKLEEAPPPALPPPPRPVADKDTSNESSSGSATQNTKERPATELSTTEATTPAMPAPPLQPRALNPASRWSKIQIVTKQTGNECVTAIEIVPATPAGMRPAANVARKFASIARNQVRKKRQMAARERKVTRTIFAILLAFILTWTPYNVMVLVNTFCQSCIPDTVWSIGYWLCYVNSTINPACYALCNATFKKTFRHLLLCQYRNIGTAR
The experiment in a line: mAChR M4 cell-based functional assay: calcium flux (Fluo-4, FDSS), positive allosteric modulator activity on the EC20 acetylcholine response, hM4-Gqi5 CHO-K1 cells. Further details: Emax: dose or concentration left out as unconfirmed. Conditions: for Emax at 30 µM: CHO-K1, human M4, % ACh maximum at 30 μM; for EC50: human M4, PAM activity on EC20 acetylcholine response, calcium flux, read-out: Human M4 EC50. The method in brief:
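Potentiation was taken as the concentration-dependent rise in the EC20 acetylcholine calcium response, fitted by a four-parameter logistic with EC20 as baseline. Fluo-4-loaded hM4-Gqi5 CHO-K1 cells received 11-point, threefold-diluted compound before acetylcholine at 144 s; FDSS read at 1 Hz.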
(Calcium flux is commonly read through the fluorescence of an indicator in the cells.)

Molecules are shown by their SMILES.

As for `Fc1ccc2nc(C(F)(F)F)nc(N3CCc4ncc(C(F)(F)F)cc4C3)c2c1` [Compound 173, 6-fluoro-2-(trifluoromethyl)-4-[3-(trifluoromethyl)-7,8-dihydro-5H-1,6-naphthyridin-6-yl]quinazoline], the Emax at 30 µM amounted to 50% and the concentration for a half-maximal effect (EC50) was determined as 170 nM.

Turning to `Cc1ncc(-c2cnc3c(c2)CN(c2ncnc4ccc(Cl)cc24)CC3)s1` [Compound 40, 5-[6-(6-chloroquinazolin-4-yl)-7,8-dihydro-5H-1,6-naphthyridin-3-yl]-2-methyl-thiazole], the Emax at 30 µM was 79% and the EC50 was found to be 110 nM.

On to `Cc1nc(N2CCc3ncc(-c4ccc(N(C)C)nc4)cc3C2)c2cc(Cl)ccc2n1` [Compound 49, 5-[6-(6-chloro-2-methyl-quinazolin-4-yl)-7,8-dihydro-5H-1,6-naphthyridin-3-yl]-N,N-dimethyl-pyridin-2-amine], for which the maximum response (Emax) at 30 µM is 81% and the EC50 was determined as 1230 nM.

With `CN1CCN(c2cnc3c(c2)CN(c2ncnc4cc(F)c(F)cc24)CC3)CC1=O` [Compound 273, 4-(6-(6,7-difluoroquinazolin-4-yl)-5,6,7,8-tetrahydro-1,6-naphthyridin-3-yl)-1-methylpiperazin-2-one], the maximum response (Emax) at 30 µM came to 84% and the EC50 amounted to 880 nM.

Consider `COc1ccc2ncnc(N3CCc4ncc(-c5cc(F)ccc5C)cc4C3)c2c1` [Compound 297, 4-(3-(5-fluoro-2-methylphenyl)-7,8-dihydro-1,6-naphthyridin-6(5H)-yl)-6-methoxyquinazoline], for which the Emax at 30 µM was 101% and the EC50 stood at 1550 nM.

Regarding `C[C@H]1CN(c2ncnc3ccc(Cl)cc23)Cc2cc(N3CCOCC3)cnc21` [Compound 263, (S)-4-(6-(6-chloroquinazolin-4-yl)-8-methyl-5,6,7,8-tetrahydro-1,6-naphthyridin-3-yl)morpholine], the Emax at 30 µM was 88% and the EC50 amounted to 160 nM.

For `Fc1cc2ncnc(N3CCc4ncc(-c5cnn(C6CC6)c5)cc4C3)c2cc1F` [Compound 54, 4-[3-(1-cyclopropylpyrazol-4-yl)-7,8-dihydro-5H-1,6-naphthyridin-6-yl]-6,7-difluoro-quinazoline], the maximal response (Emax) at 30 µM was found to be 85% and the EC50 is 200 nM.

For the compound `Fc1ncccc1Nc1cnc2c(c1)CN(c1ncnc3ccc(Cl)cc13)CC2` [Compound 71, 6-(6-chloroquinazolin-4-yl)-N-(2-fluoro-3-pyridyl)-7,8-dihydro-5H-1,6-naphthyridin-3-amine], the maximal response (Emax) at 30 µM amounted to 82% and the EC50 was found to be 140 nM.

Consider `Fc1ccc2nc(NC3CC(F)(F)C3)nc(N3CCc4ncc(C(F)(F)F)cc4C3)c2c1` [Compound 184, N-(3,3-difluorocyclobutyl)-6-fluoro-4-[3-(trifluoromethyl)-7,8-dihydro-5H-1,6-naphthyridin-6-yl]quinazolin-2-amine], for which the maximum response (Emax) at 30 µM worked out at 93% and the EC50 stood at 1380 nM.

In the case of `Fc1ccc2c(N3CCc4ncc(C(F)(F)F)cc4C3)ncnc2c1` [Compound 137, 7-fluoro-4-[3-(trifluoromethyl)-7,8-dihydro-5H-1,6-naphthyridin-6-yl]quinazoline], the maximal response (Emax) at 30 µM was determined as 83% and the half-maximal effective concentration (EC50) was determined as 430 nM.

Consider `Clc1nc(N2CCc3ncc(N4CCCn5nccc54)cc3C2)c2cccnc2n1` [Compound 94, 2-chloro-4-[3-(6,7-dihydro-5H-pyrazolo[1,5-a]pyrimidin-4-yl)-7,8-dihydro-5H-1,6-naphthyridin-6-yl]pyrido[2,3-d]pyrimidine], for which the maximal response (Emax) at 30 µM was 88% and the EC50 amounted to 130 nM.

Take `Cc1ccc(-c2cnc3c(c2)CN(c2nc(C(F)(F)F)nc4ccc(F)cc24)CC3)cn1` [Compound 67, 6-fluoro-4-[3-(6-methyl-3-pyridyl)-7,8-dihydro-5H-1,6-naphthyridin-6-yl]-2-(trifluoromethyl)quinazoline]: the Emax at 30 µM came out at 55% and the EC50 was 660 nM.

Regarding `Cc1nc(N2Cc3cc(C(F)(F)F)cnc3CC2C)c2cc(F)ccc2n1` (centres unmarked) [Compound 156, 6-fluoro-2-methyl-4-[7-methyl-3-(trifluoromethyl)-7,8-dihydro-5H-1,6-naphthyridin-6-yl]quinazoline], the maximal effect (Emax) at 30 µM stood at 99% and the EC50 is 220 nM.

As to `Cc1nn(C)cc1-c1cnc2c(c1)CN(c1ncnc3ccc(F)cc13)CC2` [Compound 11, 4-[3-(1,3-dimethylpyrazol-4-yl)-7,8-dihydro-5H-1,6-naphthyridin-6-yl]-6-fluoro-quinazoline], the Emax at 30 µM was 83% and the concentration for a half-maximal effect (EC50) was 100 nM.

Take `Fc1cc2c(N3CCc4ncc(C(F)(F)F)cc4C3)nc(Cl)nc2cc1Cl` [Compound 171, 2,7-dichloro-6-fluoro-4-[3-(trifluoromethyl)-7,8-dihydro-5H-1,6-naphthyridin-6-yl]quinazoline]: the Emax at 30 µM came out at 50% and the EC50 came to 1280 nM.

In the case of `CC(C)n1nccc1-c1cnc2c(c1)CN(c1ncnc3cc(F)c(F)cc13)CC2` [Compound 268, 6,7-difluoro-4-(3-(1-isopropyl-1H-pyrazol-5-yl)-7,8-dihydro-1,6-naphthyridin-6(5H)-yl)quinazoline], the Emax at 30 µM amounted to 85% and the EC50 turned out to be 190 nM.

Regarding `Fc1ccc2ncnc(N3CCc4ncc(N5CCCn6ccnc65)cc4C3)c2c1` [Compound 275, 4-(3-(6,7-dihydroimidazo[1,2-a]pyrimidin-8(5H)-yl)-7,8-dihydro-1,6-naphthyridin-6(5H)-yl)-6-fluoroquinazoline], the Emax at 30 µM was 73% and the EC50 was found to be 2240 nM.

As to `Cc1nc(N2CCc3ncc(-c4ccnn4C)cc3C2)c2cc(F)ccc2n1` [Compound 20, 6-fluoro-2-methyl-4-[3-(2-methylpyrazol-3-yl)-7,8-dihydro-5H-1,6-naphthyridin-6-yl]quinazoline], the Emax at 30 µM was 86% and the half-maximal effective concentration (EC50) worked out at 150 nM.

Consider `Cn1nccc1Nc1cnc2c(c1)CN(c1nc(N3CCOC(C)(C)C3)nc3ccc(F)cc13)CC2` [Compound 214, 6-[2-(2,2-dimethylmorpholin-4-yl)-6-fluoro-quinazolin-4-yl]-N-(2-methylpyrazol-3-yl)-7,8-dihydro-5H-1,6-naphthyridin-3-amine], for which the Emax at 30 µM amounted to 70% and the 50% effective concentration (EC50) came to 830 nM.

On to `Fc1ccc(Cc2cnc3c(c2)CN(c2ncnc4ccc(F)cc24)CC3)cc1` [Compound 170, 6-fluoro-4-[3-[(4-fluorophenyl)methyl]-7,8-dihydro-5H-1,6-naphthyridin-6-yl]quinazoline], for which the Emax at 30 µM was 82% and the EC50 stood at 490 nM.

`Fc1ccc2nc(NC3CC3)nc(N3CCc4ncc(C(F)(F)F)cc4C3)c2c1` [Compound 196, N-cyclopropyl-6-fluoro-4-[3-(trifluoromethyl)-7,8-dihydro-5H-1,6-naphthyridin-6-yl]quinazolin-2-amine]: the maximal effect (Emax) at 30 µM came out at 98% and the half-maximal effective concentration (EC50) was determined as 410 nM.

`CN1CCN(c2cnc3c(c2)CN(c2ncnc4ccc(F)cc24)CC3)CC12COC2` [Compound 283, 8-(6-(6-fluoroquinazolin-4-yl)-5,6,7,8-tetrahydro-1,6-naphthyridin-3-yl)-5-methyl-2-oxa-5,8-diazaspiro[3.5]nonane]: the maximal effect (Emax) at 30 µM was 99% and the concentration for a half-maximal effect (EC50) came to 700 nM.

As to `FC(F)(F)c1cnc2c(c1)CN(c1ncnc3ccc(Br)cc13)CC2` [Compound 136, 6-bromo-4-[3-(trifluoromethyl)-7,8-dihydro-5H-1,6-naphthyridin-6-yl]quinazoline], the maximal response (Emax) at 30 µM is 98% and the concentration for a half-maximal effect (EC50) was found to be 160 nM.

As to `Cc1nc(N2CCc3ncc(C(F)(F)F)cc3C2)c2cc(C#N)ccc2n1` [Compound 142, 2-methyl-4-[3-(trifluoromethyl)-7,8-dihydro-5H-1,6-naphthyridin-6-yl]quinazoline-6-carbonitrile], the maximal effect (Emax) at 30 µM is 105% and the EC50 was found to be 260 nM.

With `Cc1ccc2nc(N(C)C)nc(N3CCc4ncc(C(F)(F)F)cc4C3)c2c1` [Compound 180, N,N,6-trimethyl-4-[3-(trifluoromethyl)-7,8-dihydro-5H-1,6-naphthyridin-6-yl]quinazolin-2-amine], the EC50 worked out at 710 nM. For the same compound, the Emax (CHO-K1) turned out to be 90%.

Take `Fc1ncccc1Nc1cnc2c(c1)CN(c1nc(Cl)nc3ccc(Cl)cc13)CC2` [Compound 88, 6-(2,6-dichloroquinazolin-4-yl)-N-(2-fluoro-3-pyridyl)-7,8-dihydro-5H-1,6-naphthyridin-3-amine]: the Emax at 30 µM is 103% and the EC50 amounted to 1070 nM.

Turning to `Fc1ccc2ncnc(N3CCc4ncc(N5CCO[C@@H](c6ccccc6)C5)cc4C3)c2c1` [Compound 220, (S)-4-(6-(6-fluoroquinazolin-4-yl)-5,6,7,8-tetrahydro-1,6-naphthyridin-3-yl)-2-phenylmorpholine], the Emax at 30 µM was found to be 59% and the concentration giving a half-maximal response (EC50) was found to be 1950 nM.

On to `Cc1ccc(F)c(Oc2cnc3c(c2)CN(c2nc(C)nc4ccc(Cl)cc24)CC3)c1` [Compound 154, 6-chloro-4-[3-(2-fluoro-5-methyl-phenoxy)-7,8-dihydro-5H-1,6-naphthyridin-6-yl]-2-methyl-quinazoline], for which the Emax at 30 µM worked out at 62% and the 50% effective concentration (EC50) turned out to be 7690 nM.

What is called Emax is the greatest response seen or fitted, relative to the assay's reference. One may read the EC50 as the concentration giving half of the maximal effect.
